Assay results as given in US8623327B2, “Imaging agents for use in magnetic resonance blood flow/perfusion imaging” (Beth Israel Deaconess Medical Center, Inc., priority 2006, dated 2014).
Where two headings read alike, the source gives them in different places.

What was measured:
[1] = cited from earlier work
[2] = NMR relaxation time (T1, T2) measurement, saturation recovery; format: physicochemical; conditions: for median value of T1: 9.6 T
[3] = test system: alcohol dehydrogenase enzyme; conditions: cited from earlier work
[4] = cited from earlier work; remark: listed apart in the source
[5] = single saturated recovery experiment (FIGS. 2A and 2B)

[Xe] [Xenon]
relaxation time ([1]; in blood): less than 10 seconds
relaxation time ([1]; in tissue): ≥ 2 s

[2H]C([2H])([2H])[13C](O)(C([2H])([2H])[2H])C([2H])([2H])[2H]
median value of T1 ([2]; at 400 Mhz): 64 ± 20 s
T1 ([2]; at 400 Mhz, measured in water with oxygen present): > 20 s
T1 [2, 5]: 46±4
T2 [2, 5]: 0.6±0.02

[2H][13C]([2H])([2H])C(O)([13C]([2H])([2H])[2H])[13C]([2H])([2H])[2H]
median value of T1 ([2]; at 400 Mhz): 26 ± 5 s

CC(C)(C)O [t-butanol, tert-butyl alcohol]
processing by alcohol dehydrogenase enzyme [3]: not processed

[3He] [3He]
solubility in blood [4]: not soluble in blood
